Data as given in patent US7205295B2, “Benzoxazin-3-ones and derivatives thereof as therapeutic agents” (Warner-Lambert Company LLC, priority 2002, dated 2007).

target: T1, PI3Kγ (p101/p110γ protein) (Homo sapiens, UniProt P48736); experiment: PI3Kγ In Vitro Kinase Assay; assay type: biochemical; settings: purified recombinant p101/p110γ with G protein β1/γ2 subunits; 20 μM ATP, 25 μM PIP2; 20 minutes at room temperature
T1 construct: HA; made in house; host or cells: Spodoptera frugiperda (Sf9) cells, baculovirus co-infection
T1 sequence (P48736 whole entry, species assumed): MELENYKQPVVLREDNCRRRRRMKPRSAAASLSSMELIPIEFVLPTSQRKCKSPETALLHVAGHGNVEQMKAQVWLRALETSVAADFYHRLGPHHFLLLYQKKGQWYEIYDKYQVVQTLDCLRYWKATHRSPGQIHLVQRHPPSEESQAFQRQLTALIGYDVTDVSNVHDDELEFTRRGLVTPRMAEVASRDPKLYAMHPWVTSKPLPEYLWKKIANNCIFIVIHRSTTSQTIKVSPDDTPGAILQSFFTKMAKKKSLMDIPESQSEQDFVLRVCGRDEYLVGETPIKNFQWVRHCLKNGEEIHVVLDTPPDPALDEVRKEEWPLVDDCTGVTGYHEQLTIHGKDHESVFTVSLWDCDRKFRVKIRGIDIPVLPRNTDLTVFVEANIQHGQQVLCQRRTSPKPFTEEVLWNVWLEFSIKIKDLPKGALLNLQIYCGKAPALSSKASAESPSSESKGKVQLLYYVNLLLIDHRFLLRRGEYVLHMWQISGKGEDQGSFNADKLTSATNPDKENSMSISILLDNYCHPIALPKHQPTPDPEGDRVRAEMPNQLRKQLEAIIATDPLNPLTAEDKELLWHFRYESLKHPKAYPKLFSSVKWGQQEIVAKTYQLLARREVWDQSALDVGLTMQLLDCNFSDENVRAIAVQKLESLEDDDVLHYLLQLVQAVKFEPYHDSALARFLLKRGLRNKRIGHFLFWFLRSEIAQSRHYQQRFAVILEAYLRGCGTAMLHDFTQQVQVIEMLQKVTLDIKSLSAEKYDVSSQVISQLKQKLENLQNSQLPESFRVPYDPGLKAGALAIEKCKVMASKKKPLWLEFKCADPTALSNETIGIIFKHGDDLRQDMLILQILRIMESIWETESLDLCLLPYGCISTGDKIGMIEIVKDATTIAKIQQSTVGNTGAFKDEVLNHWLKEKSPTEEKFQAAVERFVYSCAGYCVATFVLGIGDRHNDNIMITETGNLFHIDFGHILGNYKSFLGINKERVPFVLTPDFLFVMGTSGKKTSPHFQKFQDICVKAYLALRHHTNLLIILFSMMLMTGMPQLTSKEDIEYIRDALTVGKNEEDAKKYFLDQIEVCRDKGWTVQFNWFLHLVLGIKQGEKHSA
T1 sequence (Q8WYR1 whole entry partner, species assumed): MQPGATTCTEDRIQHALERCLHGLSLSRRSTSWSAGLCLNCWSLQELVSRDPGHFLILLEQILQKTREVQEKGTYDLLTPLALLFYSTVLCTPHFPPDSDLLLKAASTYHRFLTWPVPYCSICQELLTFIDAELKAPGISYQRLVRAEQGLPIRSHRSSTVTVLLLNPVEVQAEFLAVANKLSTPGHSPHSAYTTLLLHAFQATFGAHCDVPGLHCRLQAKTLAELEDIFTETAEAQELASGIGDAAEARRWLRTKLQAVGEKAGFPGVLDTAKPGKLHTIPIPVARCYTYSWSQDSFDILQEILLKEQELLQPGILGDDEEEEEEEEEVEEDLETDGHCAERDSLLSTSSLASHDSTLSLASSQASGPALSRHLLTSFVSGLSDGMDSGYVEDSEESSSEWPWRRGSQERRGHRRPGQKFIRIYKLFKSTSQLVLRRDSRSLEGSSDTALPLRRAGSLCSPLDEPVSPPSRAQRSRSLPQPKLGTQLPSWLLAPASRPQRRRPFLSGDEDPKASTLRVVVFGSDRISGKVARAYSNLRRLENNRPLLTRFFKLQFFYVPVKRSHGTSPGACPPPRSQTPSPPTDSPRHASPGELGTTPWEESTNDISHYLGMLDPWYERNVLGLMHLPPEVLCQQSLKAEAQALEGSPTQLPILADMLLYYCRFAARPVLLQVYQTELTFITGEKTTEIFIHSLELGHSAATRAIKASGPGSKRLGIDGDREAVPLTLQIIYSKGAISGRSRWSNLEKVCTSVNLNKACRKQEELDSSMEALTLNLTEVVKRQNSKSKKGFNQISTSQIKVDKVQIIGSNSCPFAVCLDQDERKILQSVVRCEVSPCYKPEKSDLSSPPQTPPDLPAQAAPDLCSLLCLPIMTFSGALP
Summary of the method: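 Reactions ran 20 min at room temperature, pairing lipid micelles (25 μM PIP2, 300 μM PE, 0.02% Na-cholate, 10 mM MgCl2) with 20 μM ATP including [γ-32P]ATP. The enzyme was recombinant p101/p110γ (2.7 nM) with G protein β1/γ2 (57.7 nM). [32P]PIP3 product was stopped with H3PO4, filtered and scintillation counted.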

Structure (SMILES)	IC50 [nM]
CC(C)(C)C1CC(CN2C(=O)COc3ccc(C=C4SC(=S)NC4=O)cc32)CC(C(C)(C)C)C1 (stereo not drawn) [Example 250, 4-(3,5-Di-tert-butyl-cyclohexylmethyl)-6-(4-oxo-2-thioxo-thiazolidin-5-ylidenemethyl)-4H-1,4-benzoxazin-3-one]	175
CC(C)S(=O)(=O)c1cccc(CN2C(=O)COc3ccc(C=C4SC(=S)NC4=O)cc32)c1 [Example 253, 6-(4-Oxo-2-thioxo-thiazolidin-5-ylidenemethyl)-4-[3-(propane-2-sulfonyl)-benzyl]-4H-1,4-benzoxazin-3-one]	16
Cc1cc(CN2CCN(C)CC2)cc(CN2C(=O)COc3ccc(C=C4SC(=S)NC4=O)cc32)c1 [Example 255, 4-[3-Methyl-5-(4-methyl-piperazin-1-ylmethyl)-benzyl]-6-(4-oxo-2-thioxo-thiazolidin-5-ylidenemethyl)-4H-1,4-benzoxazin-3-one]	15
O=C1NC(=O)C(=Cc2ccc3c(c2)N(CC2CCCCC2)C(=O)CO3)S1 [Example 258, 5-(4-Cyclohexylmethyl-3-oxo-3,4-dihydro-2H-1,4-benzoxazin-6-ylmethylene)-thiazolidine-2,4-dione]	4
COc1c(CN2C(=O)COc3ccc(C=C4SC(=S)NC4=O)cc32)cccc1C(C)C [Example 260, 4-(3-Isopropyl-2-methoxy-benzyl)-6-(4-oxo-2-thioxo-thiazolidin-5-ylidenemethyl)-4H-1,4-benzoxazin-3-one]	4
O=C1NC(=S)OC1=Cc1ccc2c(c1)N(CC1CCCCC1)C(=O)CO2 [Example 261, 4-Cyclohexylmethyl-6-(4-oxo-2-thioxo-oxazolidin-5-ylidenemethyl)-4H-1,4-benzoxazin-3-one]	2
CN(C)S(=O)(=O)c1cccc(CN2C(=O)COc3ccc(C=C4SC(=S)NC4=O)cc32)c1 [Example 262, N,N-Dimethyl-3-[3-oxo-6-(4-oxo-2-thioxo-thiazolidin-5-ylidenemethyl)-2,3-dihydro-1,4-benzoxazin-4-ylmethyl]-benzenesulfonamide]	19
CC(C)(C)c1cccc(CN2C(=O)COc3ccc(C=C4SC(=S)NC4=O)cc32)c1 [Example 263, 4-(3-tert-Butyl-benzyl)-6-(4-oxo-2-thioxo-thiazolidin-5-ylidenemethyl)-4H-1,4-benzoxazin-3-one]	18
C/C(=C1/SC(=S)NC1=O)c1ccc2c(c1)NC(=O)CO2 [Example 268, 6-{1-[4-Oxo-2-thioxo-thiazolidin-(5Z)-ylidene]-ethyl}-4H-benzo[1,4]oxazin-3-one]	4640
CS(=O)(=O)c1cccc(CN2C(=O)COc3c(F)cc(C=C4SC(=S)NC4=O)cc32)c1 [Example 269, 8-Fluoro-4-(3-methanesulfonyl-benzyl)-6-(4-oxo-2-thioxo-thiazolidin-5-ylidenemethyl)-4H-benzo[1,4]oxazin-3-one]	14
O=C1NC(=S)S/C1=C\c1cc(F)c2c(c1)N(Cc1cc(C(F)(F)F)cc(C(F)(F)F)c1)C(=O)CO2 [Example 273, 4-(3,5-Bis-trifluoromethyl-benzyl)-8-fluoro-6-[4-oxo-2-thioxo-thiazolidin-(5Z)-ylidenemethyl]-4H-benzo[1,4]oxazin-3-one]	121

Continued, values first:

IC50 [nM]	Structure (SMILES)
25	Cc1cc(CN2CCN(C)CC2)cc(CN2C(=O)COc3ccc(C=C4SC(=O)NC4=O)cc32)c1 [Example 251, 5-{4-[3-Methyl-5-(4-methyl-piperazin-1-ylmethyl)-benzyl]-3-oxo-3,4-dihydro-2H-1,4-benzoxazin-6-ylmethylene}-thiazolidine-2,4-dione]
21	CC(C)S(=O)(=O)c1cccc(CN2C(=O)COc3ccc(C=C4SC(=O)NC4=O)cc32)c1 [Example 252, 5-{3-Oxo-4-[3-(propane-2-sulfonyl)-benzyl]-3,4-dihydro-2H-1,4-benzoxazin-6-ylmethylene}-thiazolidine-2,4-dione]
10	CC(C)Sc1cccc(CN2C(=O)COc3ccc(C=C4SC(=S)NC4=O)cc32)c1 [Example 254, 4-(3-Isopropylsulfanyl-benzyl)-6-(4-oxo-2-thioxo-thiazolidin-5-ylidenemethyl)-4H-1,4-benzoxazin-3-one]
20	CN(C)S(=O)(=O)c1cccc(CN2C(=O)COc3ccc(C=C4SC(=O)NC4=O)cc32)c1 [Example 256, 3-[6-(2,4-Dioxo-thiazolidin-5-ylidenemethyl)-3-oxo-2,3-dihydro-1,4-benzoxazin-4-ylmethyl]-N,N-dimethyl-benzenesulfonamide]
28	O=C1NC(=S)SC1=Cc1ccc2c(c1)N(Cc1cccc(S(=O)(=O)N3CCOCC3)c1)C(=O)CO2 [Example 257, 4-[3-(Morpholine-4-sulfonyl)-benzyl]-6-(4-oxo-2-thioxo-thiazolidin-5-ylidenemethyl)-4H-1,4-benzoxazin-3-one]
13	O=C1NC(=S)SC1=Cc1ccc2c(c1)N(Cc1ccc(S(=O)(=O)N3CCOCC3)cc1)C(=O)CO2 [Example 259, 4-[4-(Morpholine-4-sulfonyl)-benzyl]-6-(4-oxo-2-thioxo-thiazolidin-5-ylidenemethyl)-4H-1,4-benzoxazin-3-one]
4	CN(C)S(=O)(=O)c1ccc(CN2C(=O)COc3ccc(/C=C4\SC(=S)NC4=O)cc32)cc1 [Example 264, N,N-Dimethyl-4-{3-oxo-6-[4-oxo-2-thioxo-thiazolidin-(5Z)-ylidenemethyl]-2,3-dihydro-benzo[1,4]oxazin-4-ylmethyl}-benzenesulfonamide]
18	CS(=O)(=O)c1cccc(CN2C(=O)COc3ccc(/C=C4\SC(=O)NC4=O)cc32)c1 [Example 265, 5-[1-[4-(3-Methanesulfonyl-benzyl)-3-oxo-3,4-dihydro-2H-benzo[1,4]oxazin-6-yl]-meth-(Z)-ylidene]-thiazolidine-2,4-dione]
1610	C/C(=C1/SC(=S)NC1=O)c1ccc2c(c1)N(Cc1ccccc1)C(=O)CO2 [Example 266, 4-Benzyl-6-{1-[4-oxo-2-thioxo-thiazolidin-(5Z)-ylidene]-ethyl}-4H-benzo[1,4]oxazin-3-one]
460	O=C1NC(=S)S/C1=C\c1cnc2c(c1)N(CCc1ccccc1)C(=O)CO2 [Example 267, 7-[4-Oxo-2-thioxo-thiazolidin-(5Z)-ylidenemethyl]-1-phenethyl-1H-pyrido[2,3-b][1,4]oxazin-2-one]
11	CS(=O)(=O)c1cccc(CN2C(=O)COc3ccc(/C=C4\SC(=S)NC4=O)cc32)c1 [Example 270, 4-(3-Methanesulfonyl-benzyl)-6-[4-oxo-2-thioxo-thiazolidin-(5Z)-ylidenemethyl]-4H-benzo[1,4]oxazin-3-one]
101	O=C1NC(=S)O/C1=C\c1ccc2c(c1)N(Cc1cc(C(F)(F)F)cc(C(F)(F)F)c1)C(=O)CO2 [Example 271, 4-(3,5-Bis-trifluoromethyl-benzyl)-6-[4-oxo-2-thioxo-oxazolidin-(5Z)-ylidenemethyl]-4H-benzo[1,4]oxazin-3-one]
70	O=C1NC(=O)/C(=C/c2ccc3c(c2)N(Cc2cc(C(F)(F)F)cc(C(F)(F)F)c2)C(=O)CO3)S1 [Example 272, 5-[1-[4-(3,5-Bis-trifluoromethyl-benzyl)-3-oxo-3,4-dihydro-2H-benzo[1,4]oxazin-6-yl]-meth-(Z)-ylidene]-thiazolidine-2,4-dione]
